Measured values: US6664229B2, “Methods for treatment using novel ligands of the neuropeptide receptor HFGAN72” (SmithKline Beecham p.l.c., priority 1997, dated 2003)

System: rats
Assay: Cannula placement verification: dipsogenic response to icv angiotensin II
Type: in vivo, rat
Settings: 100 ng i.c.v., 5 minute period post-AII, average
Protocol: An appropriate cannula placement is indicated by an intense dipsogenic response to 100 ng i.c.v. angiotensin II (AII). To induce a dipsogenic effect, access is required to the AII receptors located on circumventricular organs around the third ventricle. The time spent drinking for a 5 minute period post-AII is recorded. This tends to be an all-or-nothing effect, but rats spend on average 150 s drinking. […] This may be verified by injection of cresyl violet and sectioning of the brain.

angiotensin II (DRVYIHPF; Angiotensin-2; UniProt P01019 25-32, looked up)
time spent drinking: ~150 s
